Results as given in US20220187281A1, “METHODS AND SYSTEMS FOR EVALUATION OF CELL SAMPLES” (priority 2019, published 2022).

Experiments:
[1] = test system: BR0851 TNBC PDX tumor; assay: Cell-Titer Blue viability of BR0851 TNBC PDX tumor slices; type: cell-based, human; conditions: for sensitivity by viability assay readings: 12 days ex vivo compared to 0 div; for response profile of tumor slices: by 13 div, long-term exposure
[2] = test system: BR0851 TNBC PDX slices; assay: Immunohistochemical analysis of BR0851 TNBC PDX slices; type: cell-based, human; conditions: BR0851 slices at 13 div; for overall cell numbers (immunohistochemical analysis): compared with vehicle
[3] = test system: patient tumor tissue samples from two locations; assay: Viability of samples from two locations of the same patient tumor (Example 6); type: cell-based; conditions: 0, 3, 5, 9, and 12 days in vitro
Procedure: Tumor tissue samples from two locations of the same patient tumor are obtained and cultured as described in Example 1. Each sample is treated with Cisplatin (Cis), Doxorubicin (Dox) or Paclitaxel (Taxol). Viability measurements are obtained at 0, 3, 5, 9, and 12 days in vitro.

[4] = test system: BR0851 TNBC PDX; conditions: JAX PDX Resource data; cited from earlier work
[5] = test system: BR1126 TNBC PDX tumor; assay: Cell-Titer Blue viability of BR1126 TNBC PDX tumor slices; type: cell-based, human
[6] = test system: BR1126 TNBC PDX; conditions: JAX PDX Resource data; cited from earlier work
[7] = test system: human metastatic colorectal cancer (mCRC) biopsy core; assay: CTB viability of human mCRC biopsy core slices in long-term culture (therapy resistance); type: cell-based; conditions: encorafenib 100 nM, binimetinib 100 nM; 16 days in culture (days 16 and 20)
Procedure: (§1) 5 μl of Cell-Titer Blue (CTB) (Promega) substrate was added to 1 ml of culture medium and incubated at 37° C. for 15 or 24 hr. 100 μl of media was removed from each sample culture and fluorescence was measured (Ex560/Em590) using Enspire® multimode plate reader (Perkin Elmer®). Background fluorescence of the culture medium was subtracted from each sample reading at each day Immediately following the CTB reading, media was changed and drugs were added to fresh media to continue culture. At desired time points, additional viability measurements were made to collect longitudinal data and conditioned media is collected and analyzed. After the final time point, tissues were fixed in formalin and embedded in paraffin or OCT for histological analyses or lysed in RIPA buffer or Trizol and conditioned media is frozen. To account for variability in tissue composition of each slice punch, viability readings of each sample was normalized to the respective CTB reading immediately after slicing (0 days ex vivo: 1 dex CTB reading) and relative fold changes in CTB readings at each time point were analyzed.
(§2) Samples were precision cut into […] thick slices using a Vibratome VT1200S (Leica Microsystems). […]

[8] = test system: human metastatic colorectal cancer (mCRC) biopsy cores; assay: CTB viability of mCRC biopsy core slices from two patients (immunotherapy response); type: cell-based; conditions: nivolumab 10 μg/mL, encorafenib 100 nM, cetuximab 10 μg/mL; early and late time points
Procedure: as §1, §2

[9] = test system: colorectal cancer PDX model (mCRC); assay: Cell-Titer Blue viability of colorectal cancer PDX model (FIG. 2E); type: cell-based, human; conditions: oxaliplatin 0.1, 1, 10 μM; 5-FU 1, 10, 100 μM; days 0, 4, 8 in vitro
[10] = test system: CNSTG colon tumor slices; assay: Cell-Titer Blue viability of CNSTG colon PDX tumor slices; type: cell-based, human; conditions: 100 uM
[11] = test system: CN0458 colon tumor slices; assay: Cell-Titer Blue viability of CN0458 colon PDX tumor slices; type: cell-based, human; conditions: 100 uM
[12] = compared with vehicle or Cisplatin treated tissues

## N.N.[Cl][Pt][Cl] [Cisplatin]
[1]
  sensitivity by viability assay readings: insensitive
  response profile of tumor slices: progressive disease profile
[2]
  overall cell numbers (immunohistochemical analysis): similar
[3]
  difference between viability measurements of the two tumor locations: significant difference
[4]
  in vivo treatment response: no response
[5]
  ex vivo treatment response: partial response
  sensitivity by viability assay readings: sensitive
[6]
  in vivo treatment response: partial response

## Cn1cnc2c(F)c(Nc3ccc(Br)cc3F)c(C(=O)NOCCO)cc21 [binimetinib]
[7]
  therapy resistance in long-term culture (viability): suppressed

## nivolumab
[8]
  sensitivity of the two mCRC patient samples (viability): differential sensitivity

## O=C1[O][Pt]2([NH][C@@H]3CCCC[C@H]3[NH]2)[O]C1=O [oxaliplatin]
[9]
  cell viability response: dose and time-dependent response
[10]
  suppression of viability of CNSTG slices compared with CN0458 slices: more effective

## COc1cccc2c1C(=O)c1c(O)c3c(c(O)c1C2=O)C[C@@](O)(C(=O)CO)C[C@@H]3O[C@H]1C[C@H](N)[C@H](O)[C@H](C)O1 [Doxorubicin]
[1]
  sensitivity by viability assay readings: sensitive
  response profile of tumor slices: complete response
[2]
  overall cell numbers (immunohistochemical analysis): overall reduction in cell numbers
[2]; [12]
  necrotic regions: increase
  pyknotic and abnormal nuclei: increase
[3]
  difference between viability measurements of the two tumor locations: significant difference

## CC(=O)O[C@H]1C(=O)[C@@]2(C)[C@H]([C@H](OC(=O)c3ccccc3)[C@]3(O)C[C@H](OC(=O)[C@H](O)[C@@H](NC(=O)c4ccccc4)c4ccccc4)C(C)=C1C3(C)C)[C@]1(OC(C)=O)CO[C@@H]1C[C@@H]2O [Paclitaxel]
[3]
  difference between viability measurements of the two tumor locations: significant difference
[5]
  sensitivity by viability assay readings: sensitive

## COC(=O)N[C@@H](C)CNc1nccc(-c2cn(C(C)C)nc2-c2cc(Cl)cc(NS(C)(=O)=O)c2F)n1 [encorafenib]
[7]
  therapy resistance in long-term culture (viability): emergence of encorafenib resistance

## O=c1[nH]cc(F)c(=O)[nH]1 [5-FU, 5-fluorouracil]
[9]
  cell viability response: no reduction in cell viability
[11]
  suppression of viability of CN0458 slices compared with CNSTG slices: more effective
